Counter-ions that a name gives are not always drawn.
Target: USP14 (Homo sapiens (Human), UniProt P54578)
Experiment: USP14 Inhibition Assay
Type: biochemical
Conditions: average value from a minimum of two experimental determinations; for IC50: read-out: IC50 Category
Protocol: Example 17: USP14 Inhibition Assay
“I” in the Table below designates an IC50 of >5 μM, “II” in the Table below designates and IC50 between 0.5 and 5 μM, and “III” designates an IC50<0.5 μM. The IC50 values in the Table below represent the average value from a minimum of two experimental determinations.

Chain of USP14 (P54578 whole entry, looked up): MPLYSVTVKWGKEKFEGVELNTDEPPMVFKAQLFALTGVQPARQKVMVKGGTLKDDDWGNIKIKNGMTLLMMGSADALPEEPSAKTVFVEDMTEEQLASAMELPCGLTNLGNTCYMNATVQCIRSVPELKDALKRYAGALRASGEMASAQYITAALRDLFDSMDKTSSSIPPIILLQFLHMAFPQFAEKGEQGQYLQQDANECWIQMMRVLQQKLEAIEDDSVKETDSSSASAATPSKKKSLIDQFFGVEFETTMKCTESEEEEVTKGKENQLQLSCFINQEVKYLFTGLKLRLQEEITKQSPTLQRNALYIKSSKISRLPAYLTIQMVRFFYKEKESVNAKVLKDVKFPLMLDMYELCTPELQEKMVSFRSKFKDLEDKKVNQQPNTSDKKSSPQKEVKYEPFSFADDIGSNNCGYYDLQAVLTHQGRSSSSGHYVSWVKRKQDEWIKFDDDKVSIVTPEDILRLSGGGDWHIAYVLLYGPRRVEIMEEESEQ

| SMILES | IC50 | IC50 Category |
| --- | --- | --- |
| Cc1c(C(=O)CN2CCCCC2)c2ccc(CCC(=O)O)cc2n1-c1ccc(C#N)cc1 [Compound 201, 3-(1-(4-Cyanophenyl)-2-methyl-3-(2-(piperidin-1-yl)acetyl)-1H-indol-6-yl)propanoic Acid] | < 500 nM | – |
| Cc1nc2c(C(=O)CN3CCCCC3)c(C)n(-c3ccc(C#N)cc3)c2cc1CCC(=O)O [Compound 202, 3-(1-(4-Cyanophenyl)-2,5-dimethyl-3-(2-(piperidin-1-yl)acetyl)-1H-pyrrolo[3,2-b]pyridin-6-yl)propanoic Acid Hydrochloride Salt] | < 500 nM | – |
| Cc1c(C(=O)CN2CCCCC2)c2ccc(CC(N)=O)cc2n1-c1ccc(C#N)cc1 [Compound 203, 2-(1-(4-Cyanophenyl)-2-methyl-3-(2-(piperidin-1-yl)acetyl)-1H-indol-6-yl)acetamide] | < 500 nM | – |
| CCN(CC)C(=O)CCc1cc2c(nc1C)c(C(=O)CN1CCCCC1)c(C)n2-c1ccc(C#N)cc1 [Compound 204, 3-(1-(4-Cyanophenyl)-2,5-dimethyl-3-(2-(piperidin-1-yl)acetyl)-1H-pyrrolo[3,2-b]pyridin-6-yl)-N,N-diethylpropanamide] | < 500 nM | – |
| CC(=O)OCCc1ccc2c(C(=O)CN3CCCCC3)c(C)n(-c3ccc(C#N)cc3)c2c1 [Compound 205, 2-(1-(4-Cyanophenyl)-2-methyl-3-(2-(piperidin-1-yl)acetyl)-1H-indol-6-yl)ethyl Acetate] | < 500 nM | – |
| C=Cc1ccc2c(C(=O)CN3CCCCC3)c(C)n(-c3ccc(C#N)cc3)c2c1 [Compound 206, 4-(2-Methyl-3-(2-(piperidin-1-yl)acetyl)-6-vinyl-1H-indol-1-yl)benzonitrile] | < 500 nM | – |
| Cc1c(C(=O)CN2CCCCC2)c2ccc(CCO)cc2n1-c1ccc(C#N)cc1 [Compound 207, 4-(6-(2-Hydroxyethyl)-2-methyl-3-(2-(piperidin-1-yl)acetyl)-1H-indol-1-yl)benzonitrile] | < 500 nM | – |
| Cc1c(C(=O)CN2CCCCC2)c2nc(-n3nccn3)ccc2n1-c1ccc(C#N)cc1 [Compound 208, 4-(2-Methyl-3-(2-(piperidin-1-yl)acetyl)-5-(2H-1,2,3-triazol-2-yl)-1H-pyrrolo[3,2-b]pyridin-1-yl)benzonitrile] | < 500 nM | – |
| Cc1c(C(=O)CN2CCCCC2)c2nc(-n3ccnn3)ccc2n1-c1ccc(C#N)cc1 [Compound 209, 4-(2-Methyl-3-(2-(piperidin-1-yl)acetyl)-5-(1H-1,2,3-triazol-1-yl)-1H-pyrrolo[3,2-b]pyridin-1-yl)benzonitrile] | < 500 nM | – |
| Cc1nc2c(C(=O)CN3CCCCC3)c(C)n(-c3ccc(C#N)cc3)c2cc1CCC(N)=O [Compound 210, 3-(1-(4-Cyanophenyl)-2,5-dimethyl-3-(2-(piperidin-1-yl)acetyl)-1H-pyrrolo[3,2-b]pyridin-6-yl)propanamide] | < 500 nM | – |
| COC(CNC(=O)CCc1cnc2c(C(=O)CN3CCCCC3)c(C)n(-c3ccc(C#N)cc3)c2c1)OC [Compound 296] | < 500 nM | – |
| Cc1c(C(=O)CN2CCCCC2)c2ncc(Br)cc2n1-c1ccc(C#N)cc1 [Compound 297, 4-(6-Bromo-2-methyl-3-(2-(piperidin-1-yl)acetyl)-1H-pyrrolo[3,2-b]pyridin-1-yl)benzonitrile] | < 500 nM | – |
| Cc1c(C(=O)CN2CCCCC2)c2ncc(CC(=O)N3CCCC3)cc2n1-c1ccc(C#N)cc1 [Compound 298, 4-(2-Methyl-6-(2-oxo-2-(pyrrolidin-1-yl)ethyl)-3-(2-(piperidin-1-yl)acetyl)-1H-pyrrolo[3,2-b]pyridin-1-yl)benzonitrile] | < 500 nM | – |
| Cc1c(C(=O)CN2CCCCC2)c2ncc(CCC(=O)NCCCN=[N+]=[N-])cc2n1-c1ccc(C#N)cc1 [Compound 299] | < 500 nM | – |
| Cc1c(C(=O)CN2CCCCC2)c2ncc(C(F)(F)F)cc2n1-c1ccc(C#N)cc1 [Compound 300] | < 500 nM | – |
| Cc1c(C(=O)CN2CCCCC2)c2ncc(C(F)F)cc2n1-c1ccc(C#N)cc1 [Compound 301, 4-(6-(Difluoromethyl)-2-methyl-3-(2-(piperidin-1-yl)acetyl)-1H-pyrrolo[3,2-b]pyridin-1-yl)benzonitrile] | < 500 nM | – |
| Cc1c(C(=O)CN2CCC(O)CC2)c2ncc(C(F)(F)F)cc2n1-c1ccc(C#N)cc1 [Compound 302] | < 500 nM | – |
| CCN(CCc1cnc2c(C(=O)CN3CCCCC3)c(C)n(-c3ccc(Cl)cc3)c2c1)S(C)(=O)=O [Compound 303, N-(2-(1-(4-Chlorophenyl)-2-methyl-3-(2-(piperidin-1-yl)acetyl)-1H-pyrrolo[3,2-b]pyridin-6-yl)ethyl)-N-ethylmethanesulfonamide] | < 500 nM | – |
| Cc1c(C(=O)CN2CCCCC2)c2ncc(CCC(=O)NCCN=[N+]=[N-])cc2n1-c1ccc(C#N)cc1 [Compound 304] | < 500 nM | – |
| CCNC(=O)/C=C/c1cnc2c(C(=O)CN3CCCCC3)c(C)n(-c3ccc(C#N)cc3)c2c1 [Compound 305, (E)-3-(1-(4-Cyanophenyl)-2-methyl-3-(2-(piperidin-1-yl)acetyl)-1H-pyrrolo[3,2-b]pyridin-6-yl)-N-ethylacrylamide] | < 500 nM | – |
| Cc1c(C(=O)CN2CCC[C@H]2C)c2ncc(Br)cc2n1-c1ccc(C#N)cc1 [Compound 306] | – | IIII |
| Cc1c(C(=O)CN2CCC[C@@H]2C)c2ncc(Br)cc2n1-c1ccc(C#N)cc1 [Compound 307] | < 500 nM | – |
| Cc1c(C(=O)CN2CCCC[C@@H]2C)c2ncc(Br)cc2n1-c1ccc(C#N)cc1 [Compound 308] | < 500 nM | – |

The remaining lines, values ahead:

| IC50 | IC50 Category | SMILES |
| --- | --- | --- |
| < 500 nM | – | Cc1c(C(=O)CN2CCCC[C@H]2C)c2ncc(Br)cc2n1-c1ccc(C#N)cc1 [Compound 309] |
| < 500 nM | – | Cc1c(C(=O)CN2CCCC2(C)C)c2ncc(Br)cc2n1-c1ccc(C#N)cc1 [Compound 310] |
| < 500 nM | – | COC1CCN(CC(=O)c2c(C)n(-c3ccc(C#N)cc3)c3cc(Br)cnc23)CC1 [Compound 311] |
| 500 to 5000 nM | – | Cc1c(C(=O)CN2CCC(CO)CC2)c2ncc(Br)cc2n1-c1ccc(C#N)cc1 [Compound 312] |
| 500 to 5000 nM | – | Cc1c(C(=O)CN2CC=CCC2)c2ncc(Br)cc2n1-c1ccc(C#N)cc1 [Compound 314] |
| < 500 nM | – | Cc1c(C(=O)CN2CC=CC2)c2ncc(Br)cc2n1-c1ccc(C#N)cc1 [Compound 315] |
| < 500 nM | – | Cc1c(C(=O)CN2CCCCC2(C)C)c2ncc(Br)cc2n1-c1ccc(C#N)cc1 [Compound 318] |
| < 500 nM | – | Cc1c(C(=O)CN2CCCCC2)c2ncc(C#CCOC(=O)N(C)C)cc2n1-c1ccc(C#N)cc1 [Compound 319, 3-(1-(4-Cyanophenyl)-2-methyl-3-(2-(piperidin-1-yl)acetyl)-1H-pyrrolo[3,2-b]pyridin-6-yl)prop-2-yn-1-yl Dimethylcarbamate] |
| < 500 nM | – | [2H]C1([2H])N(CC(=O)c2c(C)n(-c3ccc(C#N)cc3)c3cc(Br)cnc23)C([2H])([2H])C([2H])([2H])C([2H])([2H])C1([2H])[2H] [Compound 320] |
| < 500 nM | – | Cc1c(C(=O)CN2CCC(O)CC2)c2ncc(/C=C/c3nnc(C(F)(F)F)o3)cc2n1-c1ccc(C#N)cc1 [Compound 321] |
| > 5000 nM | – | Cc1c(C(=O)CN2CCC(F)(F)C2)c2ncc(Br)cc2n1-c1ccc(C#N)cc1 [Compound 324] |
| > 5000 nM | – | Cc1c(C(=O)CN2CCC2)c2ncc(Br)cc2n1-c1ccc(C#N)cc1 [Compound 325] |

From US11242361B2 (Proteostasis Therapeutics, Inc., priority 2013, dated 2022)
